One assay addresses GSPT1 (Homo sapiens, UniProt P15170+Q96SW2). The assay is described as follows: HiBiT degradation assay, GSPT1, Procedure A. The class given is cell-based. Also noted: HiBit-GSPT1 KI HEK293(LgBit) Cells; host or cells: HEK293(LgBit) knock-in cells. The method, boiled down:
(§1)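 Luminescence from HiBiT lytic detection, read after 20 min shaking, gave DC50 and Ymin by 4-parameter fit. Before that, cells (1×10^6 cells/ml, DMEM+10% FBS) sat 6 h at 37° C on 10-point compound series (10 μM–0.005 μM, 0.1% DMSO).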

The next assay deals with T1, CK1α (Homo sapiens, UniProt P48729+Q96SW2).
T1 construct: CSNK1A1-HiBit KI HEK293(LgBit) Cells; host or cells: HEK293(LgBit) knock-in cells
T1 sequence (P48729 whole entry): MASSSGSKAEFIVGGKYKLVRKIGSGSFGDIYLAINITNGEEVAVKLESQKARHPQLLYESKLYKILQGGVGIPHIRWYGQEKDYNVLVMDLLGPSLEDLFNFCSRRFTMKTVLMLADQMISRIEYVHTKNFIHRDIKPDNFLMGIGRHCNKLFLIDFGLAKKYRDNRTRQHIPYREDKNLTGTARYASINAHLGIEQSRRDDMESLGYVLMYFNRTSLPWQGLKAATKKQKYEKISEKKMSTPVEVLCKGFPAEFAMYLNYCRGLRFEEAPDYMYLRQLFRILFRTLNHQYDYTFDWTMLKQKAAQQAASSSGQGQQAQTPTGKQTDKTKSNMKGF
T1 sequence (Q96SW2 whole entry): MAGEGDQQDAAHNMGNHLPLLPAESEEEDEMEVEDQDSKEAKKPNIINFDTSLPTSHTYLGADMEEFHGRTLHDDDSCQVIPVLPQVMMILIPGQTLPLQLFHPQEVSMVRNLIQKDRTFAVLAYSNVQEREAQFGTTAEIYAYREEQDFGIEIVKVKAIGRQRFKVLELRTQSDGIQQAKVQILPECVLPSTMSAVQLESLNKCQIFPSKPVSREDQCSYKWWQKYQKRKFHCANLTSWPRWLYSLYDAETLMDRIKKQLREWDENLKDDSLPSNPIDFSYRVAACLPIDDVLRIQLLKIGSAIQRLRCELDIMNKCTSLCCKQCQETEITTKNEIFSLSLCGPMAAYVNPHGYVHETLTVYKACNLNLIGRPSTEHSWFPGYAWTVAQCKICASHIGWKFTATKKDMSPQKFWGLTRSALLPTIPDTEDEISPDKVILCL
T1 sequence (Q16531 whole entry partner): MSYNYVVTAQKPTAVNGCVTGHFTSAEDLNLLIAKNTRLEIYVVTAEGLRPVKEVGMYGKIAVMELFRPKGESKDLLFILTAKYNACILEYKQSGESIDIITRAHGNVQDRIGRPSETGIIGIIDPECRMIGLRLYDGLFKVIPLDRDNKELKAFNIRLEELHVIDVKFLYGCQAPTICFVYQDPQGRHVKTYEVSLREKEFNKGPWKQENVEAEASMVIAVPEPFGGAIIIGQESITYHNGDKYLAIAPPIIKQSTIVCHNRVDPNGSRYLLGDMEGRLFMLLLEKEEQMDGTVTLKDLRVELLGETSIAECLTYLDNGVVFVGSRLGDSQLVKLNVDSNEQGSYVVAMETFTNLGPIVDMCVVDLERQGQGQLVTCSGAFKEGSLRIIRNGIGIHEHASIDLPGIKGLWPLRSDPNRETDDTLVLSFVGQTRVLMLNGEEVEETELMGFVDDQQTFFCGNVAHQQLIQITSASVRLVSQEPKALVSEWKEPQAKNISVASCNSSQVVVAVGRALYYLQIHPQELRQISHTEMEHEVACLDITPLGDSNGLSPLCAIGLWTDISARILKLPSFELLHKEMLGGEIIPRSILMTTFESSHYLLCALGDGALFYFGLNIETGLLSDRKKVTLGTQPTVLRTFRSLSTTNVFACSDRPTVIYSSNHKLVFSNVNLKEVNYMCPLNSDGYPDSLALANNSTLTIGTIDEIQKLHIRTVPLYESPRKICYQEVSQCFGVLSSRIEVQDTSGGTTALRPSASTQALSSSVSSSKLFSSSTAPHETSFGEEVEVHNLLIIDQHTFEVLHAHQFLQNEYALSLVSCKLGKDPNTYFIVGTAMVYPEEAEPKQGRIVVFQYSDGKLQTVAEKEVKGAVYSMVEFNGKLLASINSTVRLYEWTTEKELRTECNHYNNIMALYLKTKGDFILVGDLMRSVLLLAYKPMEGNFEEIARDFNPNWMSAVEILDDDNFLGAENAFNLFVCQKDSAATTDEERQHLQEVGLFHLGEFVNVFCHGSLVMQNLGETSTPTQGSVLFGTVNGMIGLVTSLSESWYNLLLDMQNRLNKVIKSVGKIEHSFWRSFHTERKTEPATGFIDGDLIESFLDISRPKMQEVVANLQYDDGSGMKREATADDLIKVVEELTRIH
The assay is described as follows: HiBiT degradation assay, CK1α, Procedure A. The class given is cell-based. The procedure, abridged:
as §1

Chain of GSPT1 (P15170 whole entry): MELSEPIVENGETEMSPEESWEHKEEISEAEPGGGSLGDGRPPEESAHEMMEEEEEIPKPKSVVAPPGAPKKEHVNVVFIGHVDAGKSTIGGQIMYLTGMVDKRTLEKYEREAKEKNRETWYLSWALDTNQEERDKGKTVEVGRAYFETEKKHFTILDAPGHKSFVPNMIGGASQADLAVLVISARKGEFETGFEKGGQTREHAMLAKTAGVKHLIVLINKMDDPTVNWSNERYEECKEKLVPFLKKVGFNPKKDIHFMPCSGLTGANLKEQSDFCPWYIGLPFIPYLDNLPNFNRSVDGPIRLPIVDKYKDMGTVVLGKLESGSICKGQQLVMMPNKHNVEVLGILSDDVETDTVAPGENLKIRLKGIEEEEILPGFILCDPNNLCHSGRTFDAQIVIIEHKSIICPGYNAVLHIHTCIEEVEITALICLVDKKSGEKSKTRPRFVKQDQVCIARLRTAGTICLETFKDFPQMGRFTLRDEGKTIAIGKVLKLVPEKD
Chain of GSPT1 (Q96SW2 whole entry): as the sequence (Q96SW2 whole entry) above
Chain of GSPT1 (Q16531 whole entry partner): as the sequence (Q16531 whole entry partner) above

For `Cn1cnc(-c2ccc3c(c2)CN(C2CCC(=O)NC2=O)C3=O)c1-c1ccc(N)cc1` (stereo not shown) [Example 439], on GSPT1 (six hours), the DC50 was below 0.025 µM and the “GSPT1 Ymin” value is reported as “E (E = >25-75% remaining)”. For the same compound, on CK1α (six hours), the “CK1α Ymin” value is reported as “C (C = 0-10% remaining)” and the DC50 is below 0.025 µM.
In the case of `Cc1cc(Cl)cc(-c2c(-c3ccc4c(c3)CN(C3CCC(=O)NC3=O)C4=O)ncn2C)c1` (stereo not shown) [Example 201], at GSPT1 (six hours incubation), the DC50 is at least 0.025 µM and the “GSPT1 Ymin” value was “F (F = >75-100% remaining)”. Besides, on CK1α (six hours incubation), the “CK1α Ymin” value is on record as “E (E = >25-75% remaining)” and the DC50 was below 0.025 µM.
As for `Cc1cccc(-c2c(-c3ccc4c(c3)CN(C3CCC(=O)NC3=O)C4=O)ncn2C)c1F` (stereo not shown) [Example 171], on GSPT1 (six hours incubation), the half-maximal degradation concentration (DC50) was below 0.025 µM and the “GSPT1 Ymin” value was “F (F = >75-100% remaining)”. At CK1α (six hours incubation), the “CK1α Ymin” value is reported as “D (D = >10- 25% remaining)” and the DC50 was below 0.025 µM.
Take `CCCCCCc1ccc(-c2nc(-c3ccc4c(c3)CN(C3CCC(=O)NC3=O)C4=O)cn2C)cc1` (stereo not shown) [Example 575]: on GSPT1 (six hours), the DC50 is at least 0.025 µM and the “GSPT1 Ymin” value was “F (F = >75-100% remaining)”. Moreover, at CK1α (six hours), the “CK1α Ymin” value was “D (D = >10- 25% remaining)” and the DC50 was below 0.025 µM.
`O=C1CCC(N2Cc3cc(-c4conc4-c4ccccc4)ccc3C2=O)C(=O)N1` (stereo not shown) [Example 206, 3-(1-Oxo-5-(3-phenylisoxazol-4-yl)isoindolin-2-yl)piperidine-2,6-dione]: on GSPT1 (six hours incubation), the DC50 is at least 0.025 µM and the “GSPT1 Ymin” value is given as “F (F = >75-100% remaining)”. Moreover, at CK1α (six hours incubation), the “CK1α Ymin” value is “E (E = >25-75% remaining)” and the 50% degradation concentration (DC50) was at least 0.025 µM.
On to `Cn1ncc(-c2ccc3c(c2)CN(C2CCC(=O)NC2=O)C3=O)c1-c1ccccc1C1CC1` (stereo not shown) [Example 115], for which, on GSPT1 (six hours incubation), the DC50 was at least 0.025 µM and the “GSPT1 Ymin” value was “F (F = >75-100% remaining)”. Also, on CK1α (six hours incubation), the “CK1α Ymin” value is “E (E = >25-75% remaining)” and the DC50 is below 0.025 µM.
For `Cn1ncc(-c2ccc3c(c2)CN(C2CCC(=O)NC2=O)C3=O)c1-c1ccccc1` (stereo not shown) [Example 1, 3-(5-(1-Methyl-5-phenyl-1H-pyrazol-4-yl)-1-oxoisoindolin-2-yl)piperidine-2,6-dione], in that order: at least 0.025 µM, “F (F = >75-100% remaining)”, “D (D = >10- 25% remaining)” and below 0.025 µM.
Consider `Cn1c(C2CCOCC2)nc(-c2ccc3c(c2)CN(C2CCC(=O)NC2=O)C3=O)c1C1CC1` (stereo not shown) [Example 604, 3-(5-(5-cyclopropyl-1-methyl-2-(tetrahydro-2H-pyran-4-yl)-1H-imidazol-4-yl)-1-oxoisoindolin-2-yl)piperidine-2,6-dione], for which, on GSPT1 (six hours), the half-maximal degradation concentration (DC50) was at least 0.025 µM and the “GSPT1 Ymin” value is “F (F = >75-100% remaining)”. In addition, on CK1α (six hours), the “CK1α Ymin” value is “C (C = 0-10% remaining)” and the DC50 was below 0.025 µM.
On to `Cc1ccc(C)c(-c2c(-c3ccc4c(c3)CN(C3CCC(=O)NC3=O)C4=O)ncn2C)c1` (stereo not shown) [Example 234], for which, at GSPT1 (six hours incubation), the DC50 is at least 0.025 µM and the “GSPT1 Ymin” value is recorded as “F (F = >75-100% remaining)”. For the same compound, on CK1α (six hours incubation), the “CK1α Ymin” value is “D (D = >10- 25% remaining)” and the DC50 was below 0.025 µM.
Consider `Cn1ncc(-c2ccc3c(c2)CN(C2CCC(=O)NC2=O)C3=O)c1-c1cccc(N2CCNCC2)c1` (stereo not shown) [Example 412], for which, at GSPT1 (six hours), the DC50 is at least 0.025 µM and the “GSPT1 Ymin” value is “F (F = >75-100% remaining)”. In addition, on CK1α (six hours), the “CK1α Ymin” value is given as “E (E = >25-75% remaining)” and the DC50 was at least 0.025 µM.
Turning to `Cn1cnc(-c2ccc3c(c2)CN(C2CCC(=O)NC2=O)C3=O)c1-c1ccc(N2CCCCC2)nc1` (stereo not shown) [Example 403], at GSPT1 (six hours), the DC50 was at least 0.025 µM and the “GSPT1 Ymin” value is given as “F (F = >75-100% remaining)”. In addition, at CK1α (six hours), the “CK1α Ymin” value is on record as “D (D = >10- 25% remaining)” and the DC50 is below 0.025 µM.
In the case of `CN1CCN(c2ccc(-c3c(-c4ccc5c(c4)CN(C4CCC(=O)NC4=O)C5=O)ncn3C)cc2)CC1` (stereo not shown) [Example 355], on GSPT1 (six hours incubation), the DC50 was at least 0.025 µM and the “GSPT1 Ymin” value is given as “F (F = >75-100% remaining)”. Also, at CK1α (six hours incubation), the “CK1α Ymin” value is on record as “E (E = >25-75% remaining)” and the DC50 is below 0.025 µM.
With `CC1CCN(c2nc(-c3ccc4c(c3)CN(C3CCC(=O)NC3=O)C4=O)nn2C)CC1` (stereo not shown) [Example 600, 3-(5-(1-methyl-5-(4-methylpiperidin-1-yl)-1H-1,2,4-triazol-3-yl)-1-oxoisoindolin-2-yl)piperidine-2,6-dione], on GSPT1 (six hours), the DC50 is at least 0.025 µM and the “GSPT1 Ymin” value is recorded as “F (F = >75-100% remaining)”. For the same compound, on CK1α (six hours), the “CK1α Ymin” value is “D (D = >10- 25% remaining)” and the DC50 is below 0.025 µM.
With `Cn1cnc(-c2ccc3c(c2)CN(C2CCC(=O)NC2=O)C3=O)c1-c1ccc(C(F)F)cc1` (stereo not shown) [Example 203], at GSPT1 (six hours incubation), the half-maximal degradation concentration (DC50) is at least 0.025 µM and the “GSPT1 Ymin” value is given as “E (E = >25-75% remaining)”. On CK1α (six hours incubation), the “CK1α Ymin” value is listed as “D (D = >10- 25% remaining)” and the DC50 is below 0.025 µM.
With `Cc1ccc(-c2c(-c3ccc4c(c3)CN(C3CCC(=O)NC3=O)C4=O)ncn2C)c(Cl)c1` (stereo not shown) [Example 198], on GSPT1 (six hours incubation), the DC50 is below 0.025 µM and the “GSPT1 Ymin” value is “E (E = >25-75% remaining)”. For the same compound, at CK1α (six hours incubation), the “CK1α Ymin” value is “C (C = 0-10% remaining)” and the DC50 is below 0.025 µM.
Take `Cn1cnc(-c2ccc3c(c2)CN(C2CCC(=O)NC2=O)C3=O)c1-c1cccc(C#N)c1` (stereo not shown) [Example 232]: at GSPT1 (six hours incubation), the DC50 is at least 0.025 µM and the “GSPT1 Ymin” value is “F (F = >75-100% remaining)”. At CK1α (six hours incubation), the “CK1α Ymin” value is “D (D = >10- 25% remaining)” and the DC50 is below 0.025 µM.
`COc1cccc(-c2nc(-c3ccc4c(c3)CN(C3CCC(=O)NC3=O)C4=O)cn2C)c1` (stereo not shown) [Example 578]: on GSPT1 (six hours), the DC50 is below 0.025 µM and the “GSPT1 Ymin” value was “E (E = >25-75% remaining)”. Moreover, at CK1α (six hours), the “CK1α Ymin” value is “C (C = 0-10% remaining)” and the DC50 is below 0.025 µM.
As to `Cn1ncc(-c2ccc3c(c2)CN(C2CCC(=O)NC2=O)C3=O)c1-c1ccc2ccccc2c1` (stereo not shown) [Example 136], at GSPT1 (six hours incubation), the DC50 was at least 0.025 µM and the “GSPT1 Ymin” value is “F (F = >75-100% remaining)”. On CK1α (six hours incubation), the “CK1α Ymin” value is on record as “D (D = >10- 25% remaining)” and the DC50 was below 0.025 µM.
Take `O=C1CCC(N2Cc3cc(-n4ccc(-c5ccccc5)n4)ccc3C2=O)C(=O)N1` (stereo not shown) [Example 551, 3-(1-oxo-5-(3-phenyl-1H-pyrazol-1-yl)isoindolin-2-yl)piperidine-2,6-dione]: on GSPT1 (six hours), the DC50 is at least 0.025 µM and the “GSPT1 Ymin” value was “F (F = >75-100% remaining)”. At CK1α (six hours), the “CK1α Ymin” value is “E (E = >25-75% remaining)” and the DC50 is below 0.025 µM.
In the case of `COc1ccc(-c2c(-c3ccc4c(c3)CN(C3CCC(=O)NC3=O)C4=O)cnn2C)c(Cl)c1` (stereo not shown) [Example 65], at GSPT1 (six hours incubation), the DC50 was at least 0.025 µM and the “GSPT1 Ymin” value is “F (F = >75-100% remaining)”. Further, on CK1α (six hours incubation), the “CK1α Ymin” value is given as “D (D = >10- 25% remaining)” and the DC50 was below 0.025 µM.
As for `Cn1cnc(-c2ccc3c(c2)CN(C2CCC(=O)NC2=O)C3=O)c1-c1cnn(C2CCC2)c1` (stereo not shown) [Example 511], at GSPT1 (six hours), the DC50 was at least 0.025 µM and the “GSPT1 Ymin” value was “F (F = >75-100% remaining)”. Also, at CK1α (six hours), the “CK1α Ymin” value was “D (D = >10- 25% remaining)” and the DC50 is below 0.025 µM.
Regarding `Cn1nc(-c2ccc3c(c2)CN(C2CCC(=O)NC2=O)C3=O)nc1N1CCC(F)(F)CC1` (stereo not shown) [Example 613, 3-(5-(5-(4,4-difluoropiperidin-1-yl)-1-methyl-1H-1,2,4-triazol-3-yl)-1-oxoisoindolin-2-yl)piperidine-2,6-dione], at GSPT1 (six hours), the DC50 was at least 0.025 µM and the “GSPT1 Ymin” value is recorded as “F (F = >75-100% remaining)”. Also, on CK1α (six hours), the “CK1α Ymin” value is “E (E = >25-75% remaining)” and the DC50 is below 0.025 µM.
`Cn1ncc(-c2ccc3c(c2)CN(C2CCC(=O)NC2=O)C3=O)c1-c1ccc(N2CCCC2)cc1` (stereo not shown) [Example 159]: on GSPT1 (six hours incubation), the DC50 is at least 0.025 µM and the “GSPT1 Ymin” value is “F (F = >75-100% remaining)”. For the same compound, at CK1α (six hours incubation), the “CK1α Ymin” value is recorded as “D (D = >10- 25% remaining)” and the DC50 was below 0.025 µM.
Take `COc1cc(C#N)ccc1-c1c(-c2ccc3c(c2)CN(C2CCC(=O)NC2=O)C3=O)ncn1C` (stereo not shown) [Example 263]: at GSPT1 (six hours incubation), the DC50 was below 0.025 µM and the “GSPT1 Ymin” value was “F (F = >75-100% remaining)”. Besides, on CK1α (six hours incubation), the “CK1α Ymin” value is listed as “E (E = >25-75% remaining)” and the DC50 was at least 0.025 µM.
For `O=C1CCC(N2Cc3cc(-c4ncoc4-c4ccccc4)ccc3C2=O)C(=O)N1` (stereo not shown) [Example 15, 3-(1-oxo-5-(5-phenyloxazol-4-yl)isoindolin-2-yl)piperidine-2,6-dione], in that order: below 0.025 µM, “E (E = >25-75% remaining)”, “C (C = 0-10% remaining)” and below 0.025 µM.
For `Cc1ccc(-c2c(-c3ccc4c(c3)CN(C3CCC(=O)NC3=O)C4=O)cnn2C)c(F)c1` (stereo not shown) [Example 94], in that order: at least 0.025 µM, “F (F = >75-100% remaining)”, “D (D = >10- 25% remaining)” and below 0.025 µM.
`Cn1cnc(-c2ccc3c(c2)CN(C2CCC(=O)NC2=O)C3=O)c1-c1cccc(F)c1` (stereo not shown) [Example 441]: at GSPT1 (six hours), the DC50 is below 0.025 µM and the “GSPT1 Ymin” value was “E (E = >25-75% remaining)”. At CK1α (six hours), the “CK1α Ymin” value was “C (C = 0-10% remaining)” and the DC50 is below 0.025 µM.
For `Cn1cnc(-c2ccc3c(c2)CN(C2CCC(=O)NC2=O)C3=O)c1-c1cc(F)ccc1F` (stereo not shown) [Example 179], on GSPT1 (six hours incubation), the 50% degradation concentration (DC50) was below 0.025 µM and the “GSPT1 Ymin” value is “E (E = >25-75% remaining)”. In addition, at CK1α (six hours incubation), the “CK1α Ymin” value is on record as “D (D = >10- 25% remaining)” and the DC50 is below 0.025 µM.

The values are drawn from US20240158370A1, “CK1 alpha AND DUAL CK1 alpha / GSPT1 DEGRADING COMPOUNDS” (Innovo Therapeutics, Inc., priority 2022, published 2024).
